In patent US6784167B2, “17-beta-hydroxysteroid dehydrogenase-II inhibitors” (Bayer Pharmaceuticals Corporation, priority 2000, dated 2004):
Read-outs that look alike come from different tables or passages of the source.

Assays:
[1] = molecular target: T1, 17-Beta HSD II Enzyme (Homo sapiens, UniProt P37059); experiment: Primary assay: inhibition of 17-Beta HSD II enzyme (estradiol/NAD, PMS:MTS colorimetric readout at 490 nm); format: biochemical; conditions: Table 7, baculovirus-expressed recombinant HSD II, estradiol substrate
T1 construct: made in house; host or cells: insect cells (baculovirus)
T1 sequence (P37059 1-387): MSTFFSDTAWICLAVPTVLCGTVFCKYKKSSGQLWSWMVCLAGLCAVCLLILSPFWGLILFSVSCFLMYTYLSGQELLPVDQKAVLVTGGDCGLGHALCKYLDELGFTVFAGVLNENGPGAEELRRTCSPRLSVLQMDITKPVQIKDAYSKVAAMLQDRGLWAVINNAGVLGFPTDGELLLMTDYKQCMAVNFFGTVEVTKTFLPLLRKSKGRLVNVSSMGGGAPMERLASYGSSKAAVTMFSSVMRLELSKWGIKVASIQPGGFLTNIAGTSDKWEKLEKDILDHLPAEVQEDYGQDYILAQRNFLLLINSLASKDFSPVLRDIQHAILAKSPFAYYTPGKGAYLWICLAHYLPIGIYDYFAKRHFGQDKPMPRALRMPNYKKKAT
Method: HSD II protein purification: The method for purification of baculovirus-expressed HSD II was standardized as follows. The insect cell pellet containing recombinant HSD II was lysed in 2.5 volumes of lysis buffer (40 mM Tris, pH 7.5, 1 mM EDTA, 2 mM DTT, 10 uM NAD) containing 500 uM AEBSF, 10 ug/ml aprotinin, 1 uM pepstatin A, and 100 uM leupeptin. The pellet was nutated for 30 min in this buffer. Subsequently, the pellet was homogenized with 15 strokes using a glass and teflon potter. The volume was doubled with a 2× sucrose/NaCl solution (500 mM sucrose, 300 mM NaCl in lysis buffer). After centrifugation at 10,000×g for 30 min, the supernatant was decanted and stored at −20° C. The pellet was resuspended in 2.5 volumes of lysis buffer containing 250 mM sucrose and 150 mM NaCl. Homogenization was repeated (15 strokes) and the suspension was centrifuged again and the decanted supernatant was stored at −20° C. The pellet was resuspended with 2 times the original pellet volume in lysis buffer containing 150 mM NaCl and 1% Triton X-100. The suspension was nutated for 20 min and then homogenized with 5 strokes. Subsequently, the suspension was centrifuged at 30,000×g for 1 h and supernatant was decanted and poured into a chromatographic column. Sephadex G-25 (fine) was added in small amounts, allowing approximately 15 min after each addition for complete swelling. Sephadex addition was continued until all liquid was absorbed. The protein was eluted with 1 void volume of lysis buffer and eluate monitored at 280 nm optical density. The chromatographic procedure was repeated and an equal volume of glycerol was added to the final eluate.
Primary assay: After titration, the HSD II prep, generated with the standard protocol, was diluted to the appropriate concentration (generally 1/15 dilution). 55 μl of assay buffer (50 mM Hepes, pH 8.0) was added to all wells of a 96 well plate. 5 μl of 5% DMSO were added to wells A1-C1, A2-C2, F1-H1, and F2-H2. A 10 μl aliquot of a 10 mM solution in DMSO of each compound was diluted in 190 μl of assay buffer. The plate with these compound dilutions was then mixed for 15 min on a shaker and a 5 μl aliquot from each well was added to the […]. This was followed by 10 μl of HSD II enzyme ( 1/15 dilution)/estradiol mix in assay buffer containing 1% Triton X-100. The estradiol […] from a 20 mM estradiol DMSO stock solution, which was diluted 1/20 (50 μl/ml) in 50 mM Hepes buffer containing 1% Triton X-100. All wells, except F1-H1 and F2-H2, also received 10 μl of 25 mg/ml NAD (SIGMA) in 100 mM Hepes, pH 9. The blank wells F1-H1 and F2-H2 received 10 μl of NAD buffer. 20 μl of PMS:MTS solution (100 μl PMS into 1800 μl MTS, Promega) was added to all wells. The plate was covered with aluminum foil and incubated at room temperature for 1.5 h. The plate was analyzed at 490 nm on a Hewlett Pachard 8453 spectrophotometer and results were calculated.

[2] = read-out: IC50 values ≧2 μM and <10 μM

| Structure (SMILES) | melting point | IC50 [1, 2] | IC50 [1] |
| --- | --- | --- | --- |
| CN1C(=O)C[C@H](c2ccccc2)[C@@H]1[C@H](O)c1cccc2ccccc12 (racemic) [Example 94] | 255 to 256 °C | 2000 to 10000 nM | – |
| COc1ccc(S(=O)(=O)c2ccc([C@@H](O)[C@H]3[C@@H](c4ccccc4)CC(=O)N3C)s2)cc1 (racemic) [Example 58] | 203 to 205 °C | – | < 500 nM |
| CN(C)c1ccc(-c2ccc([C@@H](O)[C@H]3[C@@H](c4ccccc4)CC(=O)N3C)s2)cc1F (racemic) [Example 28] | 173 °C | 2000 to 10000 nM | – |
| CN1C(=O)C[C@H](c2ccccc2F)[C@@H]1[C@H](O)c1ccc(-c2cccnc2)s1 [Example 151] | 195 to 197 °C | – | < 500 nM |
| CN1C(=O)C[C@H](c2ccccc2)[C@@H]1[C@H](O)c1cccc(-c2ccccc2)c1 (racemic) [Example 98] | 173 to 176 °C | – | < 500 nM |
| CN1C(=O)CC(c2ccccc2)C1C(O)c1ccc(-c2ccc(C#N)cc2)s1 (centres unmarked) [Example 80] | 146 °C | – | < 500 nM |
| CN1C(=O)C[C@H](c2ccccc2)[C@@H]1[C@H](O)c1csc2ccccc12 (racemic) [Example 54] | > 210 °C | 2000 to 10000 nM | – |
| CN1C(=O)CC(c2ccccc2)C1C(O)c1ccc(S(=O)(=O)c2ccccc2)s1 (centres unmarked) [Example 70] | 247 °C | – | < 500 nM |
| CN1C(=O)CC(c2ccccc2)C1C(O)c1ccc(CCc2ccc(F)cc2)s1 (centres unmarked) [Example 57] | 123 to 125 °C | – | < 500 nM |
| CN1C(=O)C[C@H](c2ccccc2)[C@@H]1[C@H](O)c1ccc(-c2ccc[n+]([O-])c2)s1 [Example 26, (4R,5R)-5-{(S)-hydroxy[5-(1-oxido-3-pyridinyl)-2-thienyl]methyl}-1-methyl-4-phenyl 2-pyrrolidinone] | 138 to 140 °C | – | < 500 nM |
| CN1C(=O)C[C@H](c2ccccc2)[C@@H]1[C@H](OCCCc1ccccc1)c1cccs1 [Example 141] | 76 to 78 °C | 2000 to 10000 nM | – |
| CO[C@H](c1cccs1)[C@H]1[C@@H](c2ccccc2)CC(=O)N1C (relative stereo) [Example 12, (±)-(4R*,5R*)-5-((1S*)-methoxy-2-thienylmethyl)-1-methyl-4-phenylpyrrolidin-2-one] | 101 to 102 °C | 2000 to 10000 nM | – |
| CN1C(=O)C[C@H](c2cccc(F)c2)[C@@H]1[C@H](O)c1ccc(-c2ccc(F)cc2)s1 (racemic) [Example 85] | 195 °C | – | < 500 nM |
| CN(C)c1cccc(-c2ccc(C(O)C3C(c4ccccc4)CC(=O)N3C)s2)c1 (centres unmarked) [Example 74] | 193 °C | – | < 500 nM |
| COc1cccc(C2CC(=O)N(C)C2C(O)c2ccc(-c3ccc(F)cc3)s2)c1 (centres unmarked) [Example 87] | 172 °C | 2000 to 10000 nM | – |
| CN1C(=O)CC(c2ccccc2)C1C(O)c1ccc(-c2cccc([N+](=O)[O-])c2)o1 (centres unmarked) [Example 123] | 100 °C | 2000 to 10000 nM | – |
| CN1C(=O)C[C@H](c2ccccc2)[C@@H]1[C@H](O)c1ccc(-c2ccccc2C(F)(F)F)s1 (racemic) [Example 34] | 192 °C | – | < 500 nM |
| CN1C(=O)CC(c2ccccc2)C1C(O)c1ccc(-c2ccc(-c3ccccc3)c(F)c2)s1 (centres unmarked) [Example 47] | 170 °C | 2000 to 10000 nM | – |
| COc1ccccc1C1CC(=O)N(C)C1C(O)c1ccc(S(=O)(=O)c2ccc(Cl)cc2)s1 (centres unmarked) [Example 92] | 220 °C | – | < 500 nM |
| CN1C(=O)C[C@H](c2ccccc2)[C@@H]1[C@H](OCc1ccccc1)c1cccs1 [Example 140] | 129 to 130 °C | 2000 to 10000 nM | – |

| Structure (SMILES) | melting point | IC50 [1, 2] | IC50 [1] |
| --- | --- | --- | --- |
| CN1C(=O)CC(c2ccccc2)C1C(O)c1ccc(-c2ccccc2)o1 (centres unmarked) [Example 117] | 184 °C | 2000 to 10000 nM | – |
| CN1C(=O)C[C@H](c2ccccc2)[C@@H]1[C@H](O)C#Cc1ccccc1Cl (racemic) [Example 126] | 139 to 140 °C | – | < 500 nM |
| CN1C(=O)C[C@H](c2ccccc2)[C@@H]1[C@H](O)Cc1cccc(Cl)c1 (relative stereo) [Example 9, (±)-(4R*,5R*)-5-[(1R*)-2-(3-chlorophenyl)-1-hydroxyethyl]-1-methyl-4-phenylpyrrolidin-2-one] | 50 to 52 °C | 2000 to 10000 nM | – |
| CN1C(=O)C[C@H](c2ccccc2)[C@@H]1[C@H](O)c1cccc(-c2ccc(F)cc2)c1 (racemic) [Example 104] | 210 °C | 2000 to 10000 nM | – |
| CN1C(=O)C[C@H](c2ccccc2F)[C@@H]1[C@H](O)c1ccc(-c2ccccn2)s1 [Example 153] | 213 to 215 °C | – | < 500 nM |
| Cc1ccc(-c2ccc([C@@H](O)[C@H]3[C@@H](c4ccccc4)CC(=O)N3C)s2)c(F)c1 (racemic) [Example 72] | 182 °C | – | < 500 nM |
| CN1C(=O)CC(c2ccccc2)C1C(O)c1ccc(-c2ccc(C(=O)O)cc2)s1 (centres unmarked) [Example 68] | 232 °C (dec.) | – | < 500 nM |
| Cc1c(C(O)C2C(c3ccccc3)CC(=O)N2C)sc2ccc(F)cc12 (racemic) [Example 53] | 175 to 177 °C | – | < 500 nM |
| CN1C(=O)C[C@H](c2ccccc2)[C@@H]1[C@H](O)c1cccc(-c2cccc([N+](=O)[O-])c2)c1 (racemic) [Example 106] | 183 °C | 2000 to 10000 nM | – |
| CN1C(=O)CC(c2ccccc2)C1C(O)C#Cc1cccc(N)c1 (racemic) [Example 133] | 205 to 207 °C | – | < 500 nM |
| CN1C(=O)CC(c2ccccc2)C1C(O)c1ccc(S(=O)(=O)c2ccc(Cl)cc2)s1 (racemic) [Example 62] | 207 to 208 °C | – | < 500 nM |
| CN1C(=O)CC(c2ccccc2)C1C(O)c1ccc(-c2cccc([N+](=O)[O-])c2)s1 (racemic) [Example 44] | 150 °C | – | < 500 nM |
| Cc1sc([C@@H](O)[C@H]2[C@@H](c3ccccc3)CC(=O)N2C)cc1-c1ccccc1 (racemic) [Example 38] | 78 to 82 °C | – | < 500 nM |
| CSc1ccc(-c2ccc([C@@H](O)[C@H]3[C@@H](c4ccccc4)CC(=O)N3C)o2)cc1 (racemic) [Example 116] | 183 °C | 2000 to 10000 nM | – |
| CN1C(=O)C[C@H](c2ccccc2)[C@@H]1[C@H](O)c1ccc(-c2ccc(C(=O)O)cc2)o1 (racemic) [Example 118] | 194 °C | 2000 to 10000 nM | – |
| CN1C(=O)C[C@H](c2ccccc2)[C@@H]1[C@H](O)C#CCN1CCS(=O)(=O)CC1 (racemic) [Example 130] | 217 to 218 °C | 2000 to 10000 nM | – |
| CN1C(=O)CC(c2ccccc2)C1C(O)c1ccc(-c2cccc(F)c2)o1 (centres unmarked) [Example 122] | 180 °C | 2000 to 10000 nM | – |
| CN1C(=O)CC(c2ccccc2F)C1C(O)c1ccc(-c2ccc(F)cc2)s1 (centres unmarked) [Example 84] | 178 °C | – | < 500 nM |
| CC(=O)Nc1cccc(-c2ccc([C@@H](O)[C@H]3[C@@H](c4ccccc4)CC(=O)N3C)o2)c1 (racemic) [Example 121] | 193 °C | 2000 to 10000 nM | – |
| CN1C(=O)C[C@H](c2ccccc2)[C@@H]1[C@H](O)c1ccc(-c2ccccc2)s1 [Example 145] | 216 °C (dec.) | – | < 500 nM |
